Drawing on PubChem BioAssay (NCI), this text covers GI50 and TGI for 2 compounds.

Test systems include CCRF-CEM leukemia; HL-60(TB) leukemia; K-562 leukemia; MDA-MB-435; MOLT-4 leukemia; NCI-H23 lung; NCI/ADR-RES ovarian; OVCAR-4 ovarian; OVCAR-8 ovarian; RPMI-8226 leukemia; SK-MEL-5 melanoma; TK-10 renal; UACC-62 melanoma; BT-549 breast; HOP-92 NSCLC; NCI-H226 lung; UACC-257 melanoma.
Experiment in all cases: NCI tumour cell line growth inhibition, 48 h

Molecules are shown by their SMILES.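 All cell lines were grown in 96-well plates and treated with compound for 48 hours. Here, GI50 denotes the concentration required for 50% inhibition of growth. TGI marks complete inhibition of growth.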 Where a SMILES comes first, the peptide text is derived from it. [ ]: non-standard residue; d: D form. Phe(4-Cl) = N[CH](Cc1ccc(Cl)cc1)C(=O)O; 2Nal = N[CH](Cc1ccc2ccccc2c1)C(=O)O; 3Pal = N[CH](Cc1cccnc1)C(=O)O

`O=C1NC(=O)c2c1c1c3ccccc3ccc1c1[nH]c3ccc(Br)cc3c21`: the GI50 was 1220 nM in the assay with CCRF-CEM leukemia; 1750 nM in the assay on HL-60(TB) leukemia; 789 nM with K-562 leukemia; 1660 nM with MDA-MB-435; 1190 nM in the assay with MOLT-4 leukemia; 1460 nM in the assay with NCI-H23 lung. Besides, the GI50 is 1530 nM in the assay on NCI/ADR-RES ovarian; 1740 nM with OVCAR-4 ovarian; 2330 nM in the assay with OVCAR-8 ovarian; 501 nM with RPMI-8226 leukemia; 1560 nM in the assay with SK-MEL-5 melanoma; 2450 nM with TK-10 renal. Further, the GI50 in the assay with UACC-62 melanoma is 1910 nM. For the same compound, the TGI in the assay on CCRF-CEM leukemia was > 100000 nM; in the assay with HL-60(TB) leukemia, 6290 nM; with K-562 leukemia, > 100000 nM; in the assay on MDA-MB-435, 3740 nM; in the assay on MOLT-4 leukemia, 4030 nM; in the assay on NCI-H23 lung, 4480 nM. Further, the TGI was 5630 nM with NCI/ADR-RES ovarian; 4850 nM with OVCAR-4 ovarian; > 100000 nM in the assay with OVCAR-8 ovarian; 2870 nM in the assay on RPMI-8226 leukemia; 2940 nM in the assay with SK-MEL-5 melanoma; > 100000 nM in the assay on TK-10 renal. The compound also gave a TGI in the assay on UACC-62 melanoma of 3870 nM.

Turning to `CC(=O)NC(Cc1ccc2ccccc2c1)C(=O)NC(Cc1ccc(Cl)cc1)C(=O)NC(Cc1cccnc1)C(=O)NC(CO)C(=O)NC(Cc1ccc(O)cc1)C(=O)NC(CCCN=C(N)N)C(=O)NC(CC(C)C)C(=O)NC(CCCN=C(N)N)C(=O)N1CCCC1C(=O)NC(C)C(N)=O` (stereo unspecified) (Ac-[2Nal][Phe(4-Cl)][3Pal]SYRLRPA-NH2; configuration not given here), the TGI in the assay with BT-549 breast, in the assay with HOP-92 NSCLC, with NCI-H226 lung, in the assay with NCI-H23 lung and in the assay with UACC-257 melanoma was > 100000 nM each time.
